From patent US11034672B1, “Tyrosine kinase inhibitor compositions, methods of making and methods of use” (Black Diamond Therapeutics, Inc., priority 2018, dated 2021)

Columns and labels:
Type in all cases: cell-based
EGFR V3 [1] = target: T1, EGFR V3 (Homo sapiens, UniProt P00533, DELINS30-297G); assay: Activity for inhibiting EGFR (Table A), EGFR V3 (EGFR-Viii); conditions: read-out: EGFR V3, potency code (IC50)
T1 construct: expressed in transfected cells; host or cells: BaF3 (murine pro-B), retroviral pMXs-IRES-Blasticidin

HER2 YVMA [2] = target: T2, HER2 YVMA (Homo sapiens, UniProt P04626, INS775YVMA); assay: Activity for inhibiting HER2 (Table B), HER2 YVMA; conditions: read-out: HER2 YVMA, potency code (IC50)
T2 construct: expressed in transfected cells; host or cells: BaF3 (murine pro-B)
Description: (§1) EC50 values were determined with the same application.

HER2 YVMA [3] = target: T2, HER2 YVMA; assay: BaF3 cell proliferation assay, HER2 YVMA (Table B); conditions: potency code, 3 days, CellTiterGlo, read-out: HER2 YVMA (Activity for Inhibiting HER2)
HER2 S310F [4] = target: T3, HER2 S310F (Homo sapiens, UniProt P04626, S310F); assay: BaF3 cell proliferation assay, HER2 S310F (Table B); conditions: potency code, 3 days, CellTiterGlo, read-out: HER2 S310F (Activity for Inhibiting HER2)
T3 construct: expressed in transfected cells; host or cells: BaF3 (murine pro-B)

EGFR V3 [5] = target: T1, EGFR V3; assay: BaF3 cell proliferation assay, EGFR V3 (Table A); conditions: potency code, 3 days, CellTiterGlo, read-out: EGFR V3 (Activity for Inhibiting EGFR)
Description: (§2) Retroviral Production: EGFR mutants were subcloned into pMXs-IRES-Blasticidin (RTV-016, Cell Biolabs, San Diego, Calif.). Retroviral expression vector retrovirus was produced by transient transfection of HEK 293T cells with the retroviral EGFR mutant expression vector pMXs-IRES-Blasticidin (RTV-016, Cell Biolabs), pCMV-Gag-Pol vector and pCMV-VSV-G-Envelope vector. Briefly, HEK 293T/17 cells were plated in 100 mm collagen coated plate (354450, Corning Life Sciences, Tewksbury, Mass.) (4×10^5 per plate) and incubated overnight. The next day, retroviral plasmids (3 μg of EGFR mutant, 1.0 μg of pCMV-Gag-Pol and 0.5 μg pCMV-VSV-G) were mixed in 500 μl of Optimem (31985, Life Technologies). The mixture was incubated at room temperature for 5 min and then added to Optimem containing transfection reagent Lipofectamine (11668, Invitrogen) and incubated for 20 minutes. Mixture was then added dropwise to HEK 293T cells. The next day the medium was replaced with fresh culture medium and retrovirus was harvested @ 24 and 48 hrs.
(§3) Generation of EGFR mutant stable cell lines: BaF3 cells (1.5E5 cells) were infected with 1 ml of viral supernatant supplemented with 8 μg/ml polybrene by centrifuging for 30 min at 1000 rpm. Cells were placed in a 37° C. incubator overnight. Cells were then spun for 5 minutes to pellet the cells. Supernatant was removed and cells re-infected a fresh 1 ml of viral supernatant supplemented with 8 μg/ml polybrene by centrifuging for 30 min at 1000 rpm. Cells were placed in 37° C. incubator overnight. […] After 48 hours cells were selected for retroviral infection in 10 μg/ml Blasticidin for one week. Blasticidin resistant populations were washed twice in phosphate buffered saline before plating in media lacking IL-3 to select for IL-3 independent growth.
as §1

HER2 S310F [6] = target: T3, HER2 S310F; assay: Activity for inhibiting HER2 (Table B), HER2 S310F; conditions: read-out: HER2 S310F, potency code (IC50)
Description: as §1

EGFR WT [7] = target: T4, EGFR WT (Homo sapiens, UniProt P00533); assay: Activity for inhibiting EGFR (Table A), EGFR WT; conditions: read-out: EGFR WT, potency code (IC50)
EGFR WT [8] = target: T4, EGFR WT; assay: BaF3 cell proliferation assay, EGFR WT (Table A); conditions: potency code, 3 days, CellTiterGlo, read-out: EGFR WT (Activity for Inhibiting EGFR)
Description: as §2, §3, §1

T2 sequence (P04626 with tags, fused parts or gaps INS775YVMA): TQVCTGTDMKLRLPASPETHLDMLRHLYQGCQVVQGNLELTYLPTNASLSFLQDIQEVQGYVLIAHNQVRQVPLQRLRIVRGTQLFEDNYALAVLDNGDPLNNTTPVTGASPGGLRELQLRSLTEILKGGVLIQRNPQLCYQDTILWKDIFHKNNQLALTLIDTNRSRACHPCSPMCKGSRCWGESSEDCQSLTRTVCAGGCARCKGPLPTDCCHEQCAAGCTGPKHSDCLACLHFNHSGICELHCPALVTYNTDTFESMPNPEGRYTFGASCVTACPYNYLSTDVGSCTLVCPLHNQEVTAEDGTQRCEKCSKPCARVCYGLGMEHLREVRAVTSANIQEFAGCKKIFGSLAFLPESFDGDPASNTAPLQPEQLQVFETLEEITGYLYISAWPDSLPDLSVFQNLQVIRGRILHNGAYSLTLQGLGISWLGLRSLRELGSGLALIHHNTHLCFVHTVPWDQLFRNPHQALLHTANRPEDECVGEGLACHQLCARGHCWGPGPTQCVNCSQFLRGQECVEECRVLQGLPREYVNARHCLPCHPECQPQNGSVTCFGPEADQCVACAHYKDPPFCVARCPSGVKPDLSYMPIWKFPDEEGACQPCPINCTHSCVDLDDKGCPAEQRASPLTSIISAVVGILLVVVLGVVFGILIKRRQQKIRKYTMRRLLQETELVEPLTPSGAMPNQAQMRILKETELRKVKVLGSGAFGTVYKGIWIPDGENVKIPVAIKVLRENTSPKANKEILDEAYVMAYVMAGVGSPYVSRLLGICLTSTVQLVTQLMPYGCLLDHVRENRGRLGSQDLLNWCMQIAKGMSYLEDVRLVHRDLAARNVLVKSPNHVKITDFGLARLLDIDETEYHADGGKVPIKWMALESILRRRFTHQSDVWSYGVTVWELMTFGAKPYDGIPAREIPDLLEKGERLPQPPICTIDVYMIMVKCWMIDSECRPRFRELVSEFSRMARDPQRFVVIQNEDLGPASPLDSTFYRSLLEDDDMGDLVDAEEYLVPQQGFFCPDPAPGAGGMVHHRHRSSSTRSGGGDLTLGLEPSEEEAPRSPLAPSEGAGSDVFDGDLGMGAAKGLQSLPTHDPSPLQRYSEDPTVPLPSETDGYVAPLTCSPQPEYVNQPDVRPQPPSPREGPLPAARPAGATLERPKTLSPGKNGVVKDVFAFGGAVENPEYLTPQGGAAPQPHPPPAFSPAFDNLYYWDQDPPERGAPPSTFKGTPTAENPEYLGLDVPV
T1 sequence (P00533 with tags, fused parts or gaps DELINS30-297G): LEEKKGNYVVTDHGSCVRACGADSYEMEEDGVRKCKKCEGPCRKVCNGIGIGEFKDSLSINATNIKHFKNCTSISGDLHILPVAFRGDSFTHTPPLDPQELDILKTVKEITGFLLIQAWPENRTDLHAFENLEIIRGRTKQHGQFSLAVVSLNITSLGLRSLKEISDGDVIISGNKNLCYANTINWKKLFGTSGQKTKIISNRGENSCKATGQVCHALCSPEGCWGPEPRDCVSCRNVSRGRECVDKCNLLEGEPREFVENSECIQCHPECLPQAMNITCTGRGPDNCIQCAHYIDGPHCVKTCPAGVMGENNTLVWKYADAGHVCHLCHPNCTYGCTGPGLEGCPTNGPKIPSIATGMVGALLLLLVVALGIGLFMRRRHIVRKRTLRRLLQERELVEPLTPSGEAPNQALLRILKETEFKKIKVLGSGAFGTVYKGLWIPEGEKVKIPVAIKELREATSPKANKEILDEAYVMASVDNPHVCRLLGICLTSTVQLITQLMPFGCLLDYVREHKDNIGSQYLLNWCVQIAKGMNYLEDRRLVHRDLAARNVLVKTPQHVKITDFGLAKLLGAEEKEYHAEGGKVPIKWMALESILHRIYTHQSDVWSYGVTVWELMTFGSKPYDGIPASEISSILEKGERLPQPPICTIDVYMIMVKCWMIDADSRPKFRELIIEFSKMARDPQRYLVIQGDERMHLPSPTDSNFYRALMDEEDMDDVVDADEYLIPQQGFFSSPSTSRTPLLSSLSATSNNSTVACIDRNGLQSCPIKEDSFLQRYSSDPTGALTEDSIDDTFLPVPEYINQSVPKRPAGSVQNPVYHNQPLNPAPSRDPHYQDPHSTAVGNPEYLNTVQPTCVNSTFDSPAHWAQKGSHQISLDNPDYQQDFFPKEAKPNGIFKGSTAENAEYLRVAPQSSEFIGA
T4 sequence (P00533 25-1210 N540K): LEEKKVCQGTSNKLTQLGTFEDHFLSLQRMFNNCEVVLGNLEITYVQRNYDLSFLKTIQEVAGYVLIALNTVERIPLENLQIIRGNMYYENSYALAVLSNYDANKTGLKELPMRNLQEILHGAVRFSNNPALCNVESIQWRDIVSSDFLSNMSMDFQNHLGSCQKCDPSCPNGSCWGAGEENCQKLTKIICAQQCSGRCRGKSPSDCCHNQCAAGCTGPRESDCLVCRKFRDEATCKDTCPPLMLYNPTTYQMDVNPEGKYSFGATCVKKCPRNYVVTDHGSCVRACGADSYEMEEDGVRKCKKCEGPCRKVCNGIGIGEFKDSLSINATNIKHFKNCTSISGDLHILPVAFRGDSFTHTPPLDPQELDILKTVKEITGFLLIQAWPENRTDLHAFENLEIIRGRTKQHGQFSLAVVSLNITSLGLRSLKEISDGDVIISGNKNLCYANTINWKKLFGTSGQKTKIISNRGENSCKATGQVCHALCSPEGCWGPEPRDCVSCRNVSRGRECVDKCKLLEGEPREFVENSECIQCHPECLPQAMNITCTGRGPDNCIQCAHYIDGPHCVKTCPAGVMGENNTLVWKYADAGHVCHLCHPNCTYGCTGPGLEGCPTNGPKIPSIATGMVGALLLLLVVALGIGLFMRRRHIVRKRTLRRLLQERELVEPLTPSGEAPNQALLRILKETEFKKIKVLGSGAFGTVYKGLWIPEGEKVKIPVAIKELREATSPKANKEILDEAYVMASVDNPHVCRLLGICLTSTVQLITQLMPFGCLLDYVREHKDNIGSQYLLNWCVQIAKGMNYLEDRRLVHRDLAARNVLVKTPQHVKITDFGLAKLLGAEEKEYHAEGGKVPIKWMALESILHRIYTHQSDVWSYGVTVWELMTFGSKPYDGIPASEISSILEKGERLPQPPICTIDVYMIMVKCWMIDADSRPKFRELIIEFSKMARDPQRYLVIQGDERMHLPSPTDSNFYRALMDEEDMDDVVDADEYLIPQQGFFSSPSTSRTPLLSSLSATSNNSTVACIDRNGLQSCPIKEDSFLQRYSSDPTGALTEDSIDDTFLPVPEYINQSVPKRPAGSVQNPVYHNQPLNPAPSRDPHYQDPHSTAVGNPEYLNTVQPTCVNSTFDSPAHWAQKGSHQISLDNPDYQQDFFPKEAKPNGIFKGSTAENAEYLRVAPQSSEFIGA
T3 sequence (P04626 23-1255 S310F): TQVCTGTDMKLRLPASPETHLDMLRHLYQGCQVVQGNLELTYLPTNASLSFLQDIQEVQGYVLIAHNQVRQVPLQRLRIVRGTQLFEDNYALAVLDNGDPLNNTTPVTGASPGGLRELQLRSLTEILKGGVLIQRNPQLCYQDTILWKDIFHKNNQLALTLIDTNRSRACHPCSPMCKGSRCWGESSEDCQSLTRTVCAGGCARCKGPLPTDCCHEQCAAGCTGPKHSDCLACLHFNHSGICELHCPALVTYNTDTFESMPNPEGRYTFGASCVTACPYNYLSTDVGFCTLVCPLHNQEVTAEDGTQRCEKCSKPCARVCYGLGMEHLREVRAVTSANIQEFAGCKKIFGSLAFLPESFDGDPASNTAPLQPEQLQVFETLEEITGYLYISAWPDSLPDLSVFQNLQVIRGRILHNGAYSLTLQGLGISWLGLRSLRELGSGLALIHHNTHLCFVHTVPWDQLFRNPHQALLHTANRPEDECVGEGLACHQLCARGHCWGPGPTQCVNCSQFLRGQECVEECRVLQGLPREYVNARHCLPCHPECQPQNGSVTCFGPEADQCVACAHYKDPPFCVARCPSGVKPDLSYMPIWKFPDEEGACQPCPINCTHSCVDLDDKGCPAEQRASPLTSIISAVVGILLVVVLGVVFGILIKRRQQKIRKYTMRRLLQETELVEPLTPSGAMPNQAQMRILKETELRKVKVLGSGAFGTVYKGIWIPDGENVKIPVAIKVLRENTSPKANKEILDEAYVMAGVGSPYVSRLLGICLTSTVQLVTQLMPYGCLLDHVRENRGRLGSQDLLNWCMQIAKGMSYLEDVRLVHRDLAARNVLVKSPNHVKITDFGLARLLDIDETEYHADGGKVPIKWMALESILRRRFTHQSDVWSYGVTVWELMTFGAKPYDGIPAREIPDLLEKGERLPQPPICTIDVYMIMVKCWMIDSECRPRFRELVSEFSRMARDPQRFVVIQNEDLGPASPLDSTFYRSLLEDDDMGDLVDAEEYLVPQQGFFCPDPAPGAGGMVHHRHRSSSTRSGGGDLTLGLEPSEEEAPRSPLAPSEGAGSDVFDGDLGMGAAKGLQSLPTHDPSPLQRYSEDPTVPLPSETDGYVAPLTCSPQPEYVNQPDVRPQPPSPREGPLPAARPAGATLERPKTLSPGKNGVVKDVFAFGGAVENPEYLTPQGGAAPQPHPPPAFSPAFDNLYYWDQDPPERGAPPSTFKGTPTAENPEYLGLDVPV

Structure (SMILES)	IC50 (EGFR V3 [1]) [nM]	IC50 (HER2 YVMA [2]) [nM]	IC50 (HER2 YVMA [3]) [nM]	IC50 (HER2 S310F [4]) [nM]	IC50 (EGFR V3 [5]) [nM]	IC50 (HER2 S310F [6]) [nM]	IC50 (EGFR WT [7]) [nM]	IC50 (EGFR WT [8]) [nM]
C=CC(=O)Nc1cc2c(Nc3ccc(OCc4cccc(OC(F)(F)F)n4)c(Cl)c3)ncnc2cc1OCCN1CCOCC1 [compound 24]	200 to 300	300 to 500	300 to 500	200 to 300	200 to 300	200 to 300	> 1000	> 1000
C=CC(=O)Nc1cc2c(Nc3ccc(OCc4ccccn4)c(Cl)c3)ncnc2cc1N1CC2(CN(C)C2)C1 [compound 45]	200 to 300	> 1000	> 1000	300 to 500	200 to 300	300 to 500	500 to 1000	500 to 1000
C=CC(=O)Nc1cc2c(Nc3ccc(OCc4ccccn4)c(Cl)c3)ncnc2cc1N1CC2(CCN2C)C1 [compound 50]	30 to 50	> 1000	> 1000	200 to 300	30 to 50	200 to 300	> 1000	> 1000
C=CC(=O)Nc1cc2c(Nc3ccc(OCc4ccccn4)c(Cl)c3)ncnc2cc1OCCN(C)C1CC1 [compound 53]	30 to 50	100 to 200	100 to 200	30 to 50	30 to 50	30 to 50	> 1000	> 1000
C=CC(=O)Nc1cc2c(Nc3ccc(OCc4ccccn4)c(Cl)c3)ncnc2cc1OCC1(N)CC1 [compound 55]	50 to 100	200 to 300	200 to 300	50 to 100	50 to 100	50 to 100	> 1000	> 1000
C=CC(=O)Nc1cc2c(Nc3ccc(OCc4ccccn4)cn3)ncnc2cc1OC1CCN(C)C1 (stereo not shown) [compound 61]	300 to 500	> 1000	> 1000	300 to 500	300 to 500	300 to 500	> 1000	> 1000
C=CC(=O)Nc1cc2c(Nc3ccc(OCc4ccccn4)c(Cl)c3)ncnc2cc1N1CCC(N(C)C)C1 (stereo not shown) [compound 64]	100 to 200	> 1000	> 1000	300 to 500	100 to 200	300 to 500	> 1000	> 1000
C=CC(=O)Nc1cc2c(Nc3ccc(OCc4ccccn4)nc3)ncnc2cc1OCCN1CCOCC1 [compound 71]	50 to 100	> 1000	> 1000	200 to 300	50 to 100	200 to 300	500 to 1000	500 to 1000
C=CC(=O)Nc1cc2c(Nc3ccc(OCc4ccccn4)nc3)ncnc2cc1O[C@@H]1CCN(C)C1 [compound 72]	300 to 500	> 1000	> 1000	300 to 500	300 to 500	300 to 500	> 1000	> 1000
C=CC(=O)Nc1cc2c(Nc3ccc(Oc4ccc(C)nc4)c(C)c3)ncnc2cc1OCCN1CCOCC1 [compound 73]	50 to 100	300 to 500	300 to 500	30 to 50	50 to 100	30 to 50	500 to 1000	500 to 1000
C=CC(=O)Nc1cc2c(Nc3ccc(Oc4cccnc4)cc3)ncnc2cc1OCCN1CCOCC1 [compound 75]	100 to 200	300 to 500	300 to 500	100 to 200	100 to 200	100 to 200	> 1000	> 1000
C=CC(=O)Nc1cc2c(Nc3ccc(OCc4ccccn4)c(Cl)c3)ncnc2cc1OCCN1CCC(N(C)C)CC1 [compound 76]	50 to 100	100 to 200	100 to 200	30 to 50	50 to 100	30 to 50	200 to 300	200 to 300
C=CC(=O)Nc1cc2c(Nc3ccc(OCc4ccccn4)c(Cl)c3)ncnc2cc1OCCN1CC2CN(C)CC2C1 (stereo not shown) [compound 77]	50 to 100	100 to 200	100 to 200	20 to 30	50 to 100	20 to 30	100 to 200	100 to 200
C=CC(=O)Nc1cc2c(Nc3ccc(OCc4ccccn4)cc3)ncnc2cc1OCC1COCCN1 (stereo not shown) [compound 79]	50 to 100	> 1000	> 1000	100 to 200	50 to 100	100 to 200	300 to 500	300 to 500
C=CC(=O)Nc1cc2c(Nc3ccc(OCc4ccccn4)cc3)ncnc2cc1OCCN1CCC(N(C)C)CC1 [compound 80]	50 to 100	500 to 1000	500 to 1000	50 to 100	50 to 100	50 to 100	100 to 200	100 to 200
C=CC(=O)Nc1cc2c(Nc3ccc(Oc4ccc(C)nc4)c(C)c3)ncnc2cc1C#CC(C)(C)N(C)C [compound 82]	300 to 500	500 to 1000	500 to 1000	50 to 100	300 to 500	50 to 100	500 to 1000	500 to 1000
C=CC(=O)Nc1cc2c(Nc3ccc(OCc4ccccn4)c(Cl)c3)ncnc2cc1C#CC1CCCN1 (stereo not shown) [compound 83, N-(4-((3-chloro-4-(pyridin-2-ylmethoxy)phenyl)amino)-7-(pyrrolidin-2-ylethynyl)quinazolin-6-yl)acrylamide]	50 to 100	100 to 200	100 to 200	10 to 20	50 to 100	10 to 20	500 to 1000	500 to 1000
